Results taken from the CATMoS acute toxicity set (Mansouri et al. 2021).

Assay: GHS categories as the set defines them, by LD50: 1 up to 5, 2 up to 50, 3 up to 300, 4 up to 2000, 5 above 2000 mg/kg
Conditions: rat; in vivo; po
Description: […]The data set underlying the modeling effort for this project was initially compiled by NICEATM and U.S. EPA’s CCTE. Briefly, LD50 data were collected from rat acute oral systemic toxicity tests, including limit tests, ranges/confidence intervals, and discrete LD50 values. The full data set included 21,200 LD50 entries for 15,688 substances. […] Data were reviewed to ensure that LD50 values with obvious errors in the extracted data such as unit conversion errors (e.g., comma and decimal separator misplacements) were either fixed or removed. After this review, 16,209 LD50 values remained. Many of the chemicals represented had multiple LD50 entries, requiring that a single representative value per Chemical Abstracts Service Registry Number (CASRN) identifier be defined to facilitate modeling efforts. Based on ATWG feedback and to define the representative LD50 as a protective value while accounting for the distribution across multiple LD50s, the median of the lowest quartile was computed using only discrete LD50 values (omitting limit test data and range and confidence interval data). A detailed summary of the data compilation is available online on the NICEATM webpage dedicated to the collaborative modeling project (NTP 2020).
[…][…] For categorical designations, limit test and range/confidence interval LD50 data were integrated wherever possible. As such, the number of chemicals with end point values/calls varies across the modeling end points (Table 3) based on whether chemicals had representative LD50 values and/or other data. If a chemical had both, the representative value was used to determine categorical calls rather than limit test data. Some data were useable only for certain end points and categories depending on the thresholds. For example, ranges that spanned multiple hazard categories were considered only for the binary (very toxic/nontoxic) end points and omitted from rendering a determination for hazard category assignment.
[…]The final data set comprising 11,992 chemicals was split into training and evaluation sets […], respectively. This process was performed semirandomly by ordering chemicals based on the five end points (categorical and continuous LD50 values) and partitioning every fourth record into the evaluation set accordingly. This approach was taken to ensure an equivalent distribution of the LD50 values and the different hazard categories between the training and the evaluation sets without supervised sampling of the chemicals based on structures (Figure 1A). The sources of the chemical structures were also kept equivalent between the two sets, with chemical structures obtained from DSSTox, being the highest quality, representing over 75% of each set (Figure 1B).

Structure (SMILES)	GHS category
CC(C)(C)C(O)/C=C/c1ccc2c(c1)OCO2 (centres undefined)	5
CC(=O)OC1CC(C)CCC1C(C)C (centres undefined)	5
CCCCCCCCC(O)CCO (centres undefined)	5
CC(=O)OCOC(=O)C1=C(COC(N)=O)SC2C(C(C)O)C(=O)N12 (centres undefined)	5
FC(F)(F)c1cccc(N2CCc3ccccc3C2c2ccccc2)c1 (centres undefined)	4
CCN(CC)c1ccc(N=Nc2ncc([N+](=O)[O-])s2)cc1	5
COC(=O)c1ccc2c(c1)NC(=O)C2	5
ClC1C(Br)C(Br)C(Br)C(Br)C1Br (centres undefined)	5
CCCC(=O)c1ccc2c(c1)OC(C)C(=O)N2C (centres undefined)	5
CN(C/C=C/C#CC(C)(C)C)Cc1cccc2ccccc12	5
C[SiH](C)O[SiH](C)C	5
Fc1ccccc1C1c2ccccc2CCN1c1cccc(C(F)(F)F)c1 (centres undefined)	4
CCCCCCOC(=O)CC(C)C	5
CCCCCCCCC=CCCCCCCCC(=O)OCC(COC(=O)CCCCCCCC=CCCCCCCCC)(COC(=O)CCCCCCCC=CCCCCCCCC)COC(=O)CCCCCCCC=CCCCCCCCC (centres undefined)	5
O=C(O)c1ccc(NC(=O)[C@H](Cc2ccc(O)cc2)NC(=O)c2ccccc2)cc1	5
NS(=O)(=O)c1ccccc1C(F)(F)F	4
CCS(=O)(=O)c1cccnc1S(=O)(=O)NC(=O)Nc1nc(OC)cc(OC)n1	5
COc1nn(-c2cccc(C(F)(F)F)c2)c2ncccc12	4
CCCC(=O)N(C)C(=O)Oc1cccc2c1OC(C)(C)O2	4
CCCCCCCCCCCCCCOC(=O)OOC(=O)OCCCCCCCCCCCCCC	5
CCCNC(=O)Cc1cnc2cccc(C)n2c1=O	3
CCOC(=O)CCn1c(=N)oc2ccccc21	4
N#CCC(=O)OCC(COC(=O)CC#N)(COC(=O)CC#N)COC(=O)CC#N	5
CC(C)=CCN(CC=C(C)C)CCC(C#N)(c1cccc2ccccc12)C(C)C (centres undefined)	4
CC12CCC(O)C=C1C(O)CC1(O)C2CCC2(C)C(c3ccc(=O)oc3)CCC21O (centres undefined)	2
Cc1ccc(C2OC[C@@H]3OC(c4ccc(C)c(C)c4)O[C@H]([C@H](O)CO)[C@@H]3O2)cc1C (some centres undefined)	5

Structure (SMILES)	GHS category
CCC(=O)OCCC(C)CCC=C(C)C (centres undefined)	5
CCCCCCCCCCCCCCCC(=O)OC(C)C	5
CCC1COC(Cn2cncn2)(c2cc3cc(Cl)cc(Cl)c3o2)O1 (centres undefined)	4
COC(=O)CCc1cc(-n2nc3ccccc3n2)c(O)c(C(C)(C)C)c1	5
CN(CCCN1c2ccccc2CCc2ccccc21)CC(=O)c1ccc(Cl)cc1	4
CCCCCCC(=O)OCC	5
CCN(Cc1cccc(S(=O)(=O)O)c1)c1ccc(C(=C2C=CC(=[N+](CC)Cc3cccc(S(=O)(=O)[O-])c3)C=C2)c2ccc(S(=O)(=O)O)cc2)cc1	5
CCOC(=O)C(=O)Nc1ccncn1	4
Cc1c(C)c2c(c(C)c1O)CCC(C)(COc1ccc(CC3SC(=O)NC3=O)cc1)O2 (centres undefined)	5
CCn1cc(C(=O)O)c(=O)c2cnc(N3CCNCC3)nc21	5
CCCCCCCC/C=C\CCCCCCCC(=O)N(CCCC)CCCC	5
O=[N+]([O-])c1cc2c(Nc3ccc(F)c(Cl)c3)ncnc2cc1O[C@H]1CCOC1	5
CNC(=O)C(=NNc1ccc(OC)cc1[N+](=O)[O-])C(C)=O	5
CCCCCCCCCl	5
O=C1CCc2c(OCC(O)CN3CCC(Cc4ccccc4)CC3)cccc2N1Cc1ccccc1 (centres undefined)	4
C=CC(C)(O)CCC=C(C)CCC=C(C)C (centres undefined)	5
O=C1OCc2c(Cl)cccc21	4
CCOC(=O)NCC1CCN(c2nc(N)c3cc(OC)c(OC)cc3n2)CC1	4
CCCCCCCCCCCC	5
C=COCCOCCOC(=O)C=C	4
CCCCCCCC(=O)Nc1ccc(Cc2ccccn2)c([N+](=O)[O-])c1	3
O=P(O)(O)c1ccccc1	5
CCCCCCCCC(C)C=O (centres undefined)	5
CC(C)=CCC(C#N)(CCN(C)C)c1cccc2ccccc12 (centres undefined)	4
CO[C@@H](c1cc(C)c(O)c(C)c1)[C@@H](C)CO	5
CCCCCCCCOC(=O)C(C)C	5

Structure (SMILES)	GHS category
CC(=O)Nc1ccc(C2=NN(C(C)=O)C(C)Cc3cc4c(cc32)OCO4)cc1 (centres undefined)	4
CCOC(=O)CC(=O)N1CCSC1COc1ccccc1OC (centres undefined)	5
O=C(c1ccccc1)c1cc([N+](=O)[O-])ccc1S(=O)(=O)NCCCN1CCOCC1	4
CC(=O)C(=O)CC(C)C	5
CCCCCCCCCCCCCCCCCCCN	5
CC(C)N1C2CCC1CC(OC(=O)C(CO)c1ccccc1)C2 (centres undefined)	4
O=C(O)c1ccccc1N1C(=O)C(Cl)C1c1ccccc1 (centres undefined)	4
CC(O)CN(CC(C)O)C(=O)CCCCC(=O)N(CC(C)O)CC(C)O (centres undefined)	5
CCN(CC)CCc1nc(-c2ccccc2)no1	5
CCOC[C@H]1CO[C@@](Cn2cncn2)(c2cc3ccccc3o2)O1	4
CN(CC1(C)CCCO1)S(=O)(=O)c1ccc(Cl)c(S(N)(=O)=O)c1 (centres undefined)	5
C[C@]12CC[C@@H]3c4ccc(O)cc4CC[C@H]3[C@@H]1C[C@@H](O)[C@@H]2O	5
CSc1nc(N)c2c(C)coc2n1	5
O=C(O)c1ccccc1C(=O)c1ccc(-c2ccccc2)cc1	5
Cc1cc2nc3c(=O)[nH]c(=O)nc-3n(C[C@H](O)[C@H](O)[C@H](O)CO)c2cc1C	5
CCCC(=O)c1ccc2c(c1)OCC(=O)N2C	5
CCCCCCCCCCOC	5
CCCC1OC(Cn2cncn2)(c2cc3ccccc3o2)OCC1(C)C (centres undefined)	4
CC(=O)Nc1ncc([N+](=O)[O-])s1	4
C=CC(C)(O)CCC=C(C)CC(C)C (centres undefined)	5
CC(C)(C)c1cc(S)c(O)c(C(C)(C)C)c1	5
CC(C)=CCSC[C@H](N)C(=O)O	5
CCOP(=S)(OCC)SSSP(=S)(OCC)OCC	5
COc1cc(NC(=O)C(/N=N/c2cc(OC)c(S(=O)(=O)Nc3ccccc3)cc2OC)C(C)=O)c(OC)cc1Cl (centres undefined)	5
N#CCCn1ccnc1	4
NC(=O)Oc1ccccc1C(=O)Oc1ccc(Cl)cc1	5

Structure (SMILES)	GHS category
CO[Si](CC(C)C)(OC)OC	5
O=CC1=C(C(Cl)(Cl)Cl)C(Cl)(Cl)C(O)C1(Cl)Cl (centres undefined)	4
CCNC(=O)CCSCc1nnnn1-c1ccccc1	4
CC(C)[N+](C)(CCC(C(N)=O)(c1ccccc1)c1ccccc1)C(C)C	5
Oc1ccc(C(O)CNCCCCCCNCC(O)c2ccc(O)c(O)c2)cc1O (centres undefined)	5
CC(=O)NC1CCc2nc(N)sc2C1 (centres undefined)	5
CC(=O)CSc1nnnn1C	4
O=S(=O)(O)c1cc(Nc2nc(Cl)nc(N(CCO)CCO)n2)ccc1C=Cc1ccc(Nc2nc(Cl)nc(N(CCO)CCO)n2)cc1S(=O)(=O)O	5
CCC1COC(Cn2cncn2)(c2cc3cc(Cl)ccc3o2)O1 (centres undefined)	4
CCCCCCCCOC(=O)c1ccc(C(=O)OCCCCCCCC)cc1	5
C=CCCCCCCCC(=O)OC	5
CCC(=O)O[C@]1(C(C)=O)CC[C@H]2[C@@H]3CCC4=CC(=O)C=C[C@]4(C)[C@H]3[C@@H](O)C[C@@]21C	5
COc1nc(Nc2ccccc2)nc(Nc2ccc(C=Cc3ccc(Nc4nc(Nc5ccccc5)nc(OC)n4)cc3S(=O)(=O)O)c(S(=O)(=O)O)c2)n1	5
Nc1c(I)c(C(=O)Cl)c(I)c(C(=O)Cl)c1I	5
C=CCCCCCCCCC(C)CCCCCCCC (centres undefined)	5
CC1(C)C[C@@H]1C(=O)N/C(=C\CCCCSC[C@H](N)C(=O)O)C(=O)O	5
COc1cc(C)c(/C=C/C(C)=C/C=C/C(C)=C/C(=O)O)c(C)c1C	5
C=C(C)C(=O)OCCOCCOCCCC	5
CC(O)CCl (centres undefined)	3
CN1C(=O)COc2cc(C(=O)c3ccccc3)ccc21	5
NS(=O)(=O)c1ccc(N2CCCCS2(=O)=O)cc1	5
CC(O)COC(=O)c1c(Br)c(Br)c(Br)c(Br)c1C(=O)OCCOCCO (centres undefined)	5
O=C(O)CCC(CC(=O)O)(C(=O)O)P(=O)(O)O (centres undefined)	5
C=COC(=O)CCCCC(C)(C)C	5
CSC(C)=NOC(=O)N(C)SN(C(C)(C)C)P1(=S)OCC(C)(C)CO1	5
C=CC(C)C(=O)OCC (centres undefined)	5
